The NIST ThermoML archive (doi:10.1021/je030136n)

Test: xn = mol fraction of the nth substance listed
Conditions: Liquid, Pulse-echo method

CCCCCCC [heptane] + CCCO
Conditions	speed of sound [m/s]
308.07 K, 30400 kPa, x2 = 0	1290.3
308.07 K, 45590 kPa, x2 = 0	1368.7
308.08 K, 100 kPa, x2 = 0	1087.4
308.08 K, 15200 kPa, x2 = 0	1200.4
308.09 K, 121580 kPa, x2 = 0.7016	1655.6
308.09 K, 121580 kPa, x2 = 0.7986	1657.2
308.1 K, 121580 kPa, x2 = 0.3008	1657.5
308.1 K, 121580 kPa, x2 = 0.4992	1655.4
308.11 K, 30400 kPa, x2 = 0.6027	1293.7
308.11 K, 91190 kPa, x2 = 0	1562.4
308.11 K, 111450 kPa, x2 = 0.4992	1622.6
308.11 K, 111450 kPa, x2 = 0.7986	1625.7
308.12 K, 100 kPa, x2 = 0.3008	1086.3
308.12 K, 15200 kPa, x2 = 0.1008	1194.9
308.12 K, 60790 kPa, x2 = 0	1439
308.12 K, 75990 kPa, x2 = 0	1503.2
308.12 K, 91190 kPa, x2 = 0.7016	1555.2
308.13 K, 30400 kPa, x2 = 0.7986	1308.5
308.14 K, 45590 kPa, x2 = 0.6027	1368.1
308.14 K, 60790 kPa, x2 = 0.7986	1444.4
308.14 K, 91190 kPa, x2 = 0.3008	1552.6
308.14 K, 101320 kPa, x2 = 0.7986	1592.7
308.14 K, 111450 kPa, x2 = 0.3008	1624.1
308.15 K, 100 kPa, x2 = 0.7986	1128.4
308.15 K, 45590 kPa, x2 = 0.7986	1379.8
308.15 K, 60790 kPa, x2 = 0.3008	1431.2
308.15 K, 101320 kPa, x2 = 0.4992	1588.3
308.16 K, 45590 kPa, x2 = 0.3008	1362
308.16 K, 101320 kPa, x2 = 0.3008	1589.1
308.16 K, 101320 kPa, x2 = 0.7016	1590
308.16 K, 111450 kPa, x2 = 0.6027	1622.3
308.17 K, 75990 kPa, x2 = 0.3008	1494.3
308.17 K, 75990 kPa, x2 = 0.6027	1496.3
308.17 K, 111450 kPa, x2 = 0.7016	1623.4
308.17 K, 121580 kPa, x2 = 0	1668.6
308.18 K, 60790 kPa, x2 = 0.6027	1435
308.18 K, 75990 kPa, x2 = 0.4992	1495.2
308.18 K, 91190 kPa, x2 = 0.4992	1552.3
308.18 K, 91190 kPa, x2 = 0.6027	1552.8
308.18 K, 121580 kPa, x2 = 0.6027	1654.7
308.19 K, 30400 kPa, x2 = 0.3008	1284.8
308.19 K, 60790 kPa, x2 = 0.4992	1433
308.19 K, 75990 kPa, x2 = 0.7986	1503.4
308.2 K, 100 kPa, x2 = 0.4992	1095.2
308.2 K, 30400 kPa, x2 = 0.4992	1289.6
308.2 K, 45590 kPa, x2 = 0.4992	1365.2
308.2 K, 45590 kPa, x2 = 0.7016	1373.1
308.2 K, 75990 kPa, x2 = 0.1008	1497.7
308.2 K, 91190 kPa, x2 = 0.7986	1558.1
308.2 K, 101320 kPa, x2 = 0.1008	1593.7
308.21 K, 100 kPa, x2 = 0.6027	1103.5
308.21 K, 100 kPa, x2 = 0.7016	1114.7
308.21 K, 60790 kPa, x2 = 0.1008	1433.6
308.21 K, 60790 kPa, x2 = 0.7016	1438.8
308.21 K, 111450 kPa, x2 = 0	1634.6
308.22 K, 100 kPa, x2 = 0.1008	1082.2
308.22 K, 30400 kPa, x2 = 0.1008	1284.6
308.22 K, 30400 kPa, x2 = 0.7016	1300
308.22 K, 45590 kPa, x2 = 0.1008	1363.2
308.22 K, 91190 kPa, x2 = 0.1008	1556.7
308.22 K, 111450 kPa, x2 = 0.1008	1628.9
308.23 K, 75990 kPa, x2 = 0.7016	1499.1
308.23 K, 121580 kPa, x2 = 0.1008	1662.3
308.24 K, 101320 kPa, x2 = 0	1599.1
308.24 K, 101320 kPa, x2 = 0.6027	1588.1
313.08 K, 100 kPa, x2 = 0.7986	1109.7
313.08 K, 75990 kPa, x2 = 0.7986	1490.8
313.09 K, 30400 kPa, x2 = 0.4992	1273.3
313.09 K, 60790 kPa, x2 = 0.4992	1418.7
313.1 K, 100 kPa, x2 = 0	1066.1
313.1 K, 100 kPa, x2 = 0.6027	1083.9
313.1 K, 15200 kPa, x2 = 0	1182
313.1 K, 60790 kPa, x2 = 0.7986	1431
313.1 K, 75990 kPa, x2 = 0	1489.2
313.1 K, 121580 kPa, x2 = 0.7986	1645.9
313.11 K, 45590 kPa, x2 = 0.7986	1365.7
313.11 K, 91190 kPa, x2 = 0.7016	1542.7
313.11 K, 91190 kPa, x2 = 0.7986	1546.1
313.11 K, 101320 kPa, x2 = 0.7986	1580.9
313.12 K, 30400 kPa, x2 = 0	1273.3
313.12 K, 30400 kPa, x2 = 0.6027	1277.6
313.12 K, 45590 kPa, x2 = 0	1353
313.12 K, 45590 kPa, x2 = 0.3008	1346.5
313.12 K, 60790 kPa, x2 = 0	1424.3
313.12 K, 60790 kPa, x2 = 0.1008	1419
313.12 K, 75990 kPa, x2 = 0.6027	1482.9
313.12 K, 91190 kPa, x2 = 0.6027	1540
313.12 K, 101320 kPa, x2 = 0.6027	1575.9
313.12 K, 111450 kPa, x2 = 0.7986	1614.1
313.13 K, 45590 kPa, x2 = 0.1008	1347.6
313.13 K, 45590 kPa, x2 = 0.6027	1353
313.13 K, 91190 kPa, x2 = 0	1549
313.13 K, 101320 kPa, x2 = 0.7016	1578
313.13 K, 121580 kPa, x2 = 0	1656.4
313.14 K, 15200 kPa, x2 = 0.1008	1176.1
313.14 K, 60790 kPa, x2 = 0.6027	1420.9
313.14 K, 75990 kPa, x2 = 0.1008	1483.7
